Converted amounts (≈) assume the structure as drawn. Read-outs that look alike come from different tables or passages of the source.
Legend:
Assay type in all cases: cell-based
M. tuberculosis H37Ra = assay: MIC/MBC, colorimetric (alamar blue) microdilution broth assay; details: Mycobacterium tuberculosis, H37RA, M. tuberculosis H37Ra, positive control; read-out: MIC
M. tuberculosis H37Rv [1] = assay: microbe, parasite or virus in culture; details: for % Inh / inhibition of growth at 12.5 µg/mL: M. tuberculosis H37Rv; for % Inh: screen concentration 12.5 g/ml [sic], Table 8; for inhibition of growth at 12.5 µg/mL: Mycobacterium tuberculosis, at 12.5% μg/ml (so in the source), read-out: Primary Screen PI (% inhibition of growth); for activity against M. tuberculosis H37Rv in the primary screen: in words
M. tuberculosis H37Rv [2] = assay: MIC99 determination, BACTEC 460 radiometric system; details: for MIC99: Table 3, read-out: Screen 2 MIC99
Vero cells = assay: Cytotoxicity in Vero cells (MTS assay); details: Chlorocebus sabaeus
[3] = Mycobacterium tuberculosis, M. tuberculosis H37Rv, Table 8, read-out: MIC
[4] = Mycobacterium tuberculosis, M. tuberculosis H37Rv
[5] = 72 h, Vero cells, 72 h exposure, Table 3, read-out: IC50
[6] = Vero cells, Table 8, read-out: IC50

Row | Compound | % Inh (M. tuberculosis H37Rv [1]) | MIC (M. tuberculosis H37Rv [2]; [3]) | IC50 (Vero cells; [6]) | also measured
1 | CC[C@@H](CO)NCCN[C@@H](CC)CO [Ethambutol, ethambutol, reference compound] |  |  |  | MIC (M. tuberculosis H37Ra): 2 µg/mL (≈ 9.79 µM)
2 | CCOC(=O)Nc1cc(NC(C)CCCN(CC)CC)c2ncc(-c3ccc(OC)cc3)nc2n1.Cl (stereo not drawn) [Compound A22] | 98% | 1.56 µg/mL |  | IC50 (Vero cells): 8.7 µg/mL
3 | CCOC(=O)Nc1cc(NC(C)C(O)COc2ccccc2)c(N)c(N)n1 (stereo not drawn) [SRI-7405, [5,6-Diamino-4-(2-hydroxy-1-methyl-3-phenoxy-propylamino)-pyridin-2-yl]-carbamic acid ethyl ester] |  |  |  | inhibition of growth at 12.5 µg/mL (M. tuberculosis H37Rv [1]): 97%; activity against M. tuberculosis H37Rv in the primary screen (M. tuberculosis H37Rv [1]): demonstrated activity; MIC99 (M. tuberculosis H37Rv [2]; [4]): 12.5 µg/mL (≈ 33.3 µM); IC50 (Vero cells; [5]): > 1000 µg/mL
4 | CCOC(=O)Nc1cc2c(c(N)n1)N=C(c1ccc3c(c1)OCO3)[C@H](C)N2 [Compound A12] | 99% | 12.5 µg/mL (≈ 33.8 µM) | 1.51 µg/mL (≈ 4.09 µM) | 
5 | CCOC(=O)Nc1cc(NC(C)CCCN(CC)CC)c2nc(-c3ccc(Cl)cc3)cnc2n1.Cl.Cl (stereo not drawn) [Compound A34] | 97% | 6.25 µg/mL |  | IC50 (Vero cells): 2.28 µg/mL
6 | CCOC(=O)Nc1cc(NC(C)C(O)COc2ccccc2)c(N)c(N)n1 (stereo not drawn) [Compound A35] | 97% | 12.5 µg/mL (≈ 33.3 µM) | > 1000 µg/mL | 
7 | CCOC(=O)Nc1cc(NC(C)CCCN(CC)CC)c2nc(-c3ccccc3)c(-c3ccccc3)nc2n1.Cl (stereo not drawn) [Compound A21] | 98% | 0.1 µg/mL |  | IC50 (Vero cells): 8.3 µg/mL
8 | CCOC(=O)Nc1cc2[nH]c(-c3ccc4c(c3)OCO4)nc2c(NC(c2ccccc2)c2ccccc2)n1 [Compound A39] | 95% | 1.56 µg/mL (≈ 3.07 µM) | > 200 µg/mL | 
9 | CC(C)OC(=O)Nc1cc2c(c(N)n1)N=C(c1ccccc1)[C@H](C)N2 [Compound A11] | 99% | 12.5 µg/mL (≈ 36.8 µM) | 1.51 µg/mL (≈ 4.45 µM) | 
10 | CCOC(=O)Nc1cc(N)c(N)c(NC(C)C(O)c2ccccc2)n1 (stereo not drawn) [Compound A10] | 99% | 12.5 µg/mL (≈ 36.2 µM) | > 200 µg/mL | 
11 | CCOC(=O)Nc1cc(NC(C)CCCN(CC)CC)c2nc(-c3ccccc3)c(-c3ccccc3)nc2n1 (stereo not drawn) [Compound A1] | 100% |  | 4.3 µg/mL (≈ 8.16 µM) | MIC (M. tuberculosis H37Rv [2]; M. tuberculosis H37Rv, Table 8): 0.2 µg/mL (≈ 0.38 µM)
12 | CCOC(=O)Nc1cc(NCc2ccc(S(N)(=O)=O)cc2)c2nc(-c3ccccc3)c(-c3ccccc3)nc2n1 [Compound A33] | 97% | 0.39 µg/mL (≈ 0.703 µM) | > 6.25 µg/mL | 
13 | CCOC(=O)Nc1cc(NC(C)CCCN(CC)CC)c2ncc(-c3ccc(C(F)(F)F)cc3)nc2n1 (stereo not drawn) [Compound A23] | 98% |  |  | MIC (M. tuberculosis H37Rv [2]; Mycobacterium tuberculosis, H37RV): 6.25 µg/mL (≈ 12.1 µM); IC50 (Vero cells): 1.6 µg/mL (≈ 3.09 µM)
14 | CCOC(=O)Nc1cc(NCc2ccc(S(N)(=O)=O)cc2)c2nc(-c3ccccc3)c(-c3ccccc3)nc2n1 [Compound 4427-026-15, [2,3-Diphenyl-8-(4-sulfamoyl-benzylamino)-pyrido[2,3-b]pyrazin-6-yl]-carbamic acid ethyl ester] |  |  |  | inhibition of growth at 12.5 µg/mL (M. tuberculosis H37Rv [1]): 97%; activity against M. tuberculosis H37Rv in the primary screen (M. tuberculosis H37Rv [1]): demonstrated activity; MIC99 (M. tuberculosis H37Rv [2]; [4]): 0.39 µg/mL (≈ 0.703 µM); IC50 (Vero cells; [5]): > 6.25 µg/mL
15 | CCOC(=O)Nc1cc2[nH]c(-c3ccccc3)nc2c(NC(c2ccccc2)c2ccccc2)n1 [Compound A52] | 92% | 12.5 µg/mL (≈ 27 µM) | > 200 µg/mL | 

From US7718651B2, “Inhibitors of FtsZ and uses thereof” (priority 2002, dated 2010)
